According to patent US4339535A, “Process for preparing antibiotic EM 4940” (E. R. Squibb & Sons, Inc., priority 1980, dated 1982):
Converted amounts (≈) assume the structure as drawn. Where two headings read alike, the source gives them in different places.

Legend:
[1] = system: Propionibacterium acnes; assay: MIC anaerobic screen; format: cell-based; conditions: Cutibacterium acnes, Table IV, strain 4020, read-out: Minimum Inhibitory Concentration
[2] = system: Candida albicans; assay: MIC against Candida albicans (broth tube dilution); format: cell-based; conditions: Table V, strain 5314, read-out: Minimum Inhibitory Concentration
[3] = system: Klebsiella pneumoniae; assay: MIC aerobic screen, BA-2 agar
[4] = system: gram-positive and gram-negative bacteria, yeasts, fungi, acholeplasma, and the protozoan Trichomonas vaginalis; assay: biological activity, general statement; conditions: A form versus B form
[5] = system: Klebsiella aerogenes; assay: MIC aerobic screen, H-59 synthetic agar; conditions: read-out: Minimum Inhibitory Concentration
[6] = system: Staphylococcus aureus; assay: MIC aerobic screen, BA-2 agar; conditions: Staphylococcus aureus
[7] = system: Salmonella typhimurium; assay: MIC aerobic screen, BA-2 agar
[8] = system: Peptococcus variabilis; assay: MIC anaerobic screen; format: cell-based; conditions: Table IV, strain 11,264, read-out: Minimum Inhibitory Concentration
[9] = system: T. mentagrophytes; assay: MIC against dermatophytes; format: cell-based; conditions: Trichophyton mentagrophytes; Table VI; strain 2637; 26° C., 48 hours; read-out: Minimum Inhibitory Concentration
[10] = system: Escherichia coli; assay: MIC aerobic screen, BA-2 agar; conditions: Escherichia coli
[11] = system: Bacteroides fragilis; assay: MIC anaerobic screen; format: cell-based
[12] = system: Mycoplasma mycoides; assay: microbe, parasite or virus in culture; format: cell-based; conditions: 48 h
[13] = system: Shigella sonnei; assay: MIC aerobic screen, H-59 synthetic agar; format: cell-based; conditions: Table III, H-59 agar, strain 8449, read-out: Minimum Inhibitory Concentration
Excerpt: (A) Using H-59 Synthetic Agar

[14] = system: T. rubrum; assay: MIC against dermatophytes; format: cell-based; conditions: Trichophyton rubrum; Table VI; strain 9199; 26° C., 48 hours; read-out: Minimum Inhibitory Concentration
[15] = system: Streptococcus faecalis; assay: MIC aerobic screen, BA-2 agar; conditions: Enterococcus faecalis, strain 9011
[16] = system: Clostridium perfringens; assay: microbe, parasite or virus in culture; format: cell-based; conditions: read-out: Minimum Inhibitory Concentration
[17] = system: Salmonella typhimurium; assay: MIC aerobic screen, H-59 synthetic agar; conditions: Salmonella enterica, read-out: Minimum Inhibitory Concentration

CC1(O)CC(C(N)=O)N=C1c1ncccc1O (stereo not drawn) [EM4940A, 2,4-trans-3,4-dihydro-4-hydroxy-5-(3-hydroxy-2-pyridinyl)-4-methyl-2H-pyrrole-2-carboxamide]
MIC [1]: 50 µg/mL (≈ 213 µM)
MIC ([2]; Candida albicans, Medium: F4): > 100 µg/mL
MIC ([2]; Medium: Yeast Nitrogen Base + Glucose): > 100 µg/mL
MIC ([3]; Klebsiella pneumoniae, read-out: Minimum Inhibitory Concentration): 50 µg/mL (≈ 213 µM)
Minimum Inhibitory Concentration ([3]; Table II, additional tests, strain 11,066): 50 µg/mL
biological activity of A form relative to B form [4]: more active than the B form
MIC [5]: 50 µg/mL (≈ 213 µM)
MIC ([6]; read-out: Minimum Inhibitory Concentration, Table I, BA-2 agar, strain 2400): > 100 µg/mL
MIC ([6]; read-out: Minimum Inhibitory Concentration, Table I, BA-2 agar, strain 10,165): 50 µg/mL (≈ 213 µM)
MIC ([6]; read-out: Minimum Inhibitory Concentration, Table I, BA-2 agar, strain 11,239): > 100 µg/mL
MIC ([6]; read-out: Minimum Inhibitory Concentration, Table II, additional tests, strain 2400): > 200 µg/mL
MIC ([6]; read-out: Minimum Inhibitory Concentration, Table II, additional tests, strain 2661): > 200 µg/mL
MIC ([6]; read-out: Minimum Inhibitory Concentration, Table II, additional tests, strain 10,165): 100 µg/mL (≈ 425 µM)
MIC ([6]; read-out: Minimum Inhibitory Concentration, Table II, additional tests, strain 11,239): 50 µg/mL (≈ 213 µM)
MIC ([7]; Salmonella enterica, TYPHIMURIUM, read-out: Minimum Inhibitory Concentration): 50 µg/mL (≈ 213 µM)
Minimum Inhibitory Concentration ([7]; Table II, additional tests, strain 9201): 50 µg/mL
MIC [8]: 50 µg/mL (≈ 213 µM)
MIC [9]: > 100 µg/mL
MIC ([10]; read-out: Minimum Inhibitory Concentration, Table I, BA-2 agar, strain 10,404): 100 µg/mL (≈ 425 µM)
MIC ([10]; read-out: Minimum Inhibitory Concentration, Table I, BA-2 agar, strain 10,857): 50 µg/mL (≈ 213 µM)
MIC ([10]; read-out: Minimum Inhibitory Concentration, Table I, BA-2 agar, strain 10,896): 25 µg/mL (≈ 106 µM)
MIC ([10]; read-out: Minimum Inhibitory Concentration, Table II, additional tests, strain 10,404): 50 µg/mL (≈ 213 µM)
MIC ([10]; read-out: Minimum Inhibitory Concentration, Table II, additional tests, strain 10,857): 50 µg/mL (≈ 213 µM)
MIC ([11]; Table IV, anaerobic, strain 9005, read-out: Minimum Inhibitory Concentration): 50 µg/mL (≈ 213 µM)
MIC ([11]; Table IV, anaerobic, strain 10,277, read-out: Minimum Inhibitory Concentration): 50 µg/mL (≈ 213 µM)
MIC ([11]; Table IV, anaerobic, strain 10,278, read-out: Minimum Inhibitory Concentration): 50 µg/mL (≈ 213 µM)
MIC ([11]; Table IV, anaerobic, strain 10,279, read-out: Minimum Inhibitory Concentration): 50 µg/mL (≈ 213 µM)
MIC ([11]; Table IV, anaerobic, strain 10,281, read-out: Minimum Inhibitory Concentration): 50 µg/mL (≈ 213 µM)
MIC ([11]; Table IV, anaerobic, strain 11,085, read-out: Minimum Inhibitory Concentration): 100 µg/mL (≈ 425 µM)
MIC ([11]; Table IV, anaerobic, strain 11,086, read-out: Minimum Inhibitory Concentration): 50 µg/mL (≈ 213 µM)
MIC ([11]; read-out: Minimum Inhibitory Concentration): 12.5 µg/mL (≈ 53.1 µM)
MIC [12]: > 100 µg/mL
MIC [13]: 50 µg/mL (≈ 213 µM)
MIC [14]: 50 µg/mL (≈ 213 µM)
MIC ([15]; read-out: Minimum Inhibitory Concentration, Table I, BA-2 agar): > 100 µg/mL
MIC ([15]; read-out: Minimum Inhibitory Concentration, Table II, additional tests): > 200 µg/mL
MIC [16]: 50 µg/mL (≈ 213 µM)
MIC [17]: 50 µg/mL (≈ 213 µM)
